# Biological target: T1, SdLPMO10A (Saccharophagus degradans, UniProt Q21N34)
# T1 construct: gene cbpA; AA10 catalytic domain plus CBM2; native signal peptide (24 residues) replaced by pelB, pET-26b(+), E. coli BL21(DE3) periplasm, Ni-NTA purified; N-terminal His25; Cu2+-saturated
# Experiment: MALDI-TOF MS of oxidized chitin oligosaccharides
# Assay type: biochemical
# Settings: electron donor, 1 mM; 10 µM Cu2+-saturated enzyme; alpha-chitin; 20 mM Tris-HCl pH 8.0, 30 °C, 48 h
# T1 sequence (Q21N34 entry or part of it): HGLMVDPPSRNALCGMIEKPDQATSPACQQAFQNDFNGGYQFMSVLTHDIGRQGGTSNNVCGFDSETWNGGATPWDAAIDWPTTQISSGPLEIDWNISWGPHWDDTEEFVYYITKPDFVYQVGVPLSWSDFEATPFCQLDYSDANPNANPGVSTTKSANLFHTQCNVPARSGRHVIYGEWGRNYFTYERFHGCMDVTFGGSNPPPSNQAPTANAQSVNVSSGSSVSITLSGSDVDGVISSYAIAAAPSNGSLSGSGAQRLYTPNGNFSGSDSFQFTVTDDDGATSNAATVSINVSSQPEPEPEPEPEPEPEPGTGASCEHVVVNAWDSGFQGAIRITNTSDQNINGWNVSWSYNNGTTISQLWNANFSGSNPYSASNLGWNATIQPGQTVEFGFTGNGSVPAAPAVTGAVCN
smiles,measurement,value
O=C1O[C@H]([C@@H](O)CO)C(O)=C1O [ascorbic acid],MALDI-TOF MS of oxidized chitin oligosaccharides,"lacking SdLPMO10A or ascorbic acid, no discernible quantity of oxidized chitin oligosaccharides was generated"

# — PMC12385910, “The Functional Characterization of an AA10 Lytic Polysaccharide Monooxygenase from Saccharophagus degradans 2-40^T for Enhanced Chitin Biodegradation” (Foods, 2025)
